According to US6589945B1, “Use of sterolsulfates as active substances for producing means to inhibit serin proteases” (Cognis Deutschland GmbH & Co. KG, priority 1996, dated 2003):

System: Elastase
Assay: Elastase-inhibiting effect of sterol derivatives
Format: biochemical
Text: The elastase-inhibiting effect of various sterol derivatives was investigated in the concentration range from 2.5 to 1000 ppm.

Row | Molecule | Elastase-inhibiting effect (2.5 ppm inhibitor) [%-rel] | Elastase-inhibiting effect (5 ppm inhibitor) [%-rel] | Elastase-inhibiting effect (12.5 ppm inhibitor) [%-rel] | Elastase-inhibiting effect (500 ppm inhibitor) [%-rel] | Elastase-inhibiting effect (1000 ppm inhibitor) [%-rel]
1 | Phytosterol sulfate, sodium salt [Example 2] | 31 | 64 | 98 |  | 
2 | Phytosterol succinate [Example C2] | 0 | 0 | 0 | 0 | 0
3 | Phytosterol phosphate [Example C3] | 0 | 0 | 0 | 0 | 30
4 | CC(C)CCC[C@@H](C)[C@H]1CC[C@H]2[C@@H]3CC=C4C[C@@H](OS(=O)(=O)[O-])CC[C@]4(C)[C@H]3CC[C@]12C.[Na+] [Example 1, Cholesterol sulfate, sodium salt] | 49 | 92 | 100 |  | 
5 | CC(=O)O[C@H]1CC[C@@]2(C)C(=CC[C@H]3[C@@H]4CC[C@H]([C@H](C)CCCC(C)C)[C@@]4(C)CC[C@@H]32)C1 [Example C1, Cholesterol acetate] | 0 | 0 | 0 | 33 | 59
